Assay results taken from PubChem BioAssay (NCI).
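Briefly, cells in 96-well plates were exposed to five compound concentrations for 48 h, and endpoints were estimated by linear interpolation. The concentration for 50% growth inhibition is given as GI50. At the TGI there is no net growth.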

Assays:
Test in all cases: DTP human tumour cell line panel, 48 h
MALME-3M melanoma = system: MALME-3M melanoma
HCC-2998 colon = system: HCC-2998 colon
COLO 205 colon = system: COLO 205 colon
OVCAR-4 ovarian = system: OVCAR-4 ovarian
SF-295 CNS = system: SF-295 CNS
U251 CNS = system: U251 CNS
CAKI-1 renal = system: CAKI-1 renal
HOP-62 NSCLC = system: HOP-62 NSCLC
LOX IMVI melanoma = system: LOX IMVI melanoma
BT-549 breast = system: BT-549 breast

Structure (SMILES)	TGI (MALME-3M melanoma) [µM]	TGI (HCC-2998 colon) [µM]	TGI (COLO 205 colon) [µM]	TGI (OVCAR-4 ovarian) [µM]	TGI (SF-295 CNS) [µM]	TGI (U251 CNS) [µM]	TGI (CAKI-1 renal) [µM]	TGI (HOP-62 NSCLC) [µM]	GI50 (LOX IMVI melanoma) [µM]	TGI (LOX IMVI melanoma) [µM]	GI50 (MALME-3M melanoma) [µM]	GI50 (HCC-2998 colon) [µM]	GI50 (COLO 205 colon) [µM]	GI50 (OVCAR-4 ovarian) [µM]	GI50 (SF-295 CNS) [µM]	GI50 (U251 CNS) [µM]	GI50 (CAKI-1 renal) [µM]	GI50 (HOP-62 NSCLC) [µM]	GI50 (BT-549 breast) [µM]	TGI (BT-549 breast) [µM]
ClC/C=C/COC1CCCCO1 (stereo unspecified)	> 100	> 100	> 100	> 100	> 100	> 100	> 100	> 100	–	–	–	–	–	–	–	–	–	–	–	–
O=C1C=CC=C/C1=C1/SC(c2ccccc2)=C(O)N1c1ccccc1	> 100	> 100	> 100	> 100	> 100	> 100	> 100	–	–	–	–	–	–	–	–	–	–	–	–	–
C[CH2][Ge]([CH2]C)([CH2]C)[O]C(=O)C(OC(C)=O)c1ccccc1 (stereo unspecified)	> 100	> 100	> 100	> 100	> 100	> 100	> 100	> 100	> 100	> 100	> 100	> 100	> 100	> 100	> 100	> 100	> 100	> 100	–	–
CC1/C(=N\O)CC(c2ccccc2)N(C)C1c1ccccc1 (stereo unspecified)	> 100	> 100	> 100	> 100	> 100	> 100	> 100	> 100	–	> 100	–	–	–	–	–	–	–	–	–	–
O=C([CH-]C(=O)c1ccccc1)c1ccccc1.[CH-]1CCCCC1.[CH-]1CCCCC1.[CH-]1CCCCC1.[Sn+4]	22.1	18.9	16.2	–	22.1	20.8	18.1	20	4.61	18.9	8.75	6.1	4.15	–	8.1	6.86	4.52	7.85	–	–
CCOC(=O)c1cc2c(cc1Cl)SC(=Nc1ccccc1)N(S(=O)(=O)c1ccc(Cl)cc1)S2(=O)=O	–	27.9	> 100	> 100	48.6	25.9	33.7	32.6	3.17	15	–	13.5	9.06	31.5	19.5	10.6	15.7	16	14.5	30.4
O=C1CC(c2ccccc2)=Nc2ccccc2N1	> 100	> 100	> 100	> 100	> 100	> 100	> 100	> 100	–	97.6	–	–	–	–	–	–	–	–	–	–
CCOP(=O)(OCC)C1CCCOC1=O (stereo unspecified)	> 100	> 100	> 100	> 100	> 100	> 100	> 100	> 100	–	> 100	–	–	–	–	–	–	–	–	–	–
CCOC(=O)/C(=C/c1ccc(C(=O)OC)cc1)N(CC)CC	> 100	> 100	> 100	> 100	–	> 100	> 100	> 100	–	> 100	–	–	–	–	–	–	–	–	–	–
O=S(=O)(O)c1cc(O)c(N=Nc2ccc(O)cc2O)c2ccccc12	> 100	–	> 100	> 100	> 100	> 100	> 100	> 100	–	> 100	–	–	–	–	–	–	–	–	–	–
Cc1cccc(C)c1NC(=O)C1=NC(=S)NC(c2ccccc2)C1c1nc2ccccc2s1 (stereo unspecified)	> 100	> 100	> 100	> 100	> 100	> 100	> 100	–	–	–	–	–	–	–	–	–	–	–	–	–
O=c1[nH]c2ccccc2nc1/C=C(\O)c1ccccc1O	> 100	> 100	> 100	> 100	> 100	> 100	> 100	> 100	–	> 100	–	–	–	–	–	–	–	–	–	–
CC1CC[P+](c2ccccc2)(c2ccccc2)c2c1ccc1ccccc21 (stereo unspecified)	–	41.9	–	> 100	20.3	> 100	32.6	> 57.5	–	7.61	–	–	2.02	–	–	2.85	–	11.5	–	6.68
C[N+](C)(C)CC(=O)N/N=C(/C(=O)Nc1ccc(Br)cc1)C1C(=O)NC(=O)NC1=O	> 100	> 100	> 100	> 100	> 100	> 100	> 100	> 100	–	> 100	–	–	–	–	–	–	–	–	–	–
Cc1csc2[n+]1-c1ccccc1N(C(=O)Nc1ccccc1)C(C)C2 (stereo unspecified)	–	–	> 100	–	> 100	> 100	> 100	> 100	21.6	48.5	–	–	> 100	–	> 100	69.4	84.9	41.9	> 100	> 100
O=C(CC1OC(O)C(Cl)=C1Cl)c1cccnc1 (stereo unspecified)	> 100	> 100	> 100	> 100	> 100	> 57.7	> 100	> 77.7	–	> 100	–	–	–	–	–	–	–	–	–	–
COc1ccc(/C(COc2ccc3oc(-c4ccccc4)cc(=O)c3c2)=N\O)cc1	–	0.983	19.2	> 29.9	0.154	12.2	24.7	> 50	0.0322	2.69	–	0.145	0.606	10.4	< 0.005	0.13	0.0618	1.72	0.836	5.5
CN(C)CCNC(=O)c1cccc2cc3c(Cl)cccc3nc12	2.1	3.66	> 29.3	8.15	–	6.3	> 21.8	2.55	–	2.33	–	–	–	–	–	–	–	–	–	–
COCN1COCN=C1NC#N	> 100	> 100	> 100	> 100	> 100	> 100	> 100	> 100	–	–	–	–	–	–	–	–	–	–	–	–
CC1=C(C(=O)Nc2ccccc2)C(c2cccc3ccccc23)C(C(=O)Nc2ccccc2)=C(C)N1	37.4	38.6	26.6	–	46.6	31.3	38.2	35.4	–	30.4	–	–	–	–	–	–	–	–	–	–
